{
  "source": "ChEMBL document CHEMBL1201862",
  "about": "“PubChem BioAssay data set” (2004)",
  "key": {"H4": {"test_system": "H4", "assay": "Luminescence Cell-Based Dose Response HTS to Identify Activators of 5'UTR Stem-Loop Driven Prion Protein mRNA Translation in H4 Neuroglioblastoma Cells. [Related pubchem assays: 1829 (Project Summary), 1814 (Primary HTS)]", "assay_type": "functional", "conditions": "Homo sapiens"}, "[1]": {"target": "T1, Neuropeptide Y receptor type 1 (Homo sapiens, UniProt P25929)", "T1 sequence (P25929 whole entry)": "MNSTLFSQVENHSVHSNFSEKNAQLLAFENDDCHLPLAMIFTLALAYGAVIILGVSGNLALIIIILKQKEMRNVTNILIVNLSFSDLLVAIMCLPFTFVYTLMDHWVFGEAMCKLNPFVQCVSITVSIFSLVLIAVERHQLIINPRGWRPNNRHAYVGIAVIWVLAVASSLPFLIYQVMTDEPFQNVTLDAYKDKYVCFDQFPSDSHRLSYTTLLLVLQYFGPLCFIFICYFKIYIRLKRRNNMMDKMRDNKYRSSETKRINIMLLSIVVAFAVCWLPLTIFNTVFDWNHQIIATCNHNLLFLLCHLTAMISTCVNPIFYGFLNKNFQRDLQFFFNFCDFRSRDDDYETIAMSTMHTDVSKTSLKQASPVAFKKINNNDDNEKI", "assay_type": "functional"}, "[2]": {"target": "T2, Neuropeptide Y receptor type 2 (Homo sapiens, UniProt P49146)", "T2 sequence (P49146 whole entry)": "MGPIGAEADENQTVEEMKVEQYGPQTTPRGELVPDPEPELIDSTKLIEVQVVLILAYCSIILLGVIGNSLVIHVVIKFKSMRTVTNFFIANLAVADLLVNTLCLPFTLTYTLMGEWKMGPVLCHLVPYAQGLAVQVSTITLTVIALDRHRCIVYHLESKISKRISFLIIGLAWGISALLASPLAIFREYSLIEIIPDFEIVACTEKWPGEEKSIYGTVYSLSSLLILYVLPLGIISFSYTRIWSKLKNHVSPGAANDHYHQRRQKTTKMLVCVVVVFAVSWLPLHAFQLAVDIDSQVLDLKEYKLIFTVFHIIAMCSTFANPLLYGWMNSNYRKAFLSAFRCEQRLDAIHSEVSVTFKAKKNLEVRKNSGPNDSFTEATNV", "assay_type": "functional, cell-based"}, "[3]": {"assay": "Luminescence Cell-Based Dose Confirmation HTS to Identify Activators of 5'UTR Stem-Loop Driven Alpha-Synuclein mRNA Translation in H4 Neuroglioblastoma Cells. [Related pubchem assays: 1829 (Project Summary), 1814 (Primary HTS)]", "assay_type": "functional"}, "cells [4]": {"assay": "cells", "assay_type": "functional, cell-based"}, "[5]": {"target": "SWI/SNF-related matrix-associated actin-dependent regulator of chromatin subfamily A member 2 (Homo sapiens, UniProt P51531)", "sequence (P51531 whole entry)": "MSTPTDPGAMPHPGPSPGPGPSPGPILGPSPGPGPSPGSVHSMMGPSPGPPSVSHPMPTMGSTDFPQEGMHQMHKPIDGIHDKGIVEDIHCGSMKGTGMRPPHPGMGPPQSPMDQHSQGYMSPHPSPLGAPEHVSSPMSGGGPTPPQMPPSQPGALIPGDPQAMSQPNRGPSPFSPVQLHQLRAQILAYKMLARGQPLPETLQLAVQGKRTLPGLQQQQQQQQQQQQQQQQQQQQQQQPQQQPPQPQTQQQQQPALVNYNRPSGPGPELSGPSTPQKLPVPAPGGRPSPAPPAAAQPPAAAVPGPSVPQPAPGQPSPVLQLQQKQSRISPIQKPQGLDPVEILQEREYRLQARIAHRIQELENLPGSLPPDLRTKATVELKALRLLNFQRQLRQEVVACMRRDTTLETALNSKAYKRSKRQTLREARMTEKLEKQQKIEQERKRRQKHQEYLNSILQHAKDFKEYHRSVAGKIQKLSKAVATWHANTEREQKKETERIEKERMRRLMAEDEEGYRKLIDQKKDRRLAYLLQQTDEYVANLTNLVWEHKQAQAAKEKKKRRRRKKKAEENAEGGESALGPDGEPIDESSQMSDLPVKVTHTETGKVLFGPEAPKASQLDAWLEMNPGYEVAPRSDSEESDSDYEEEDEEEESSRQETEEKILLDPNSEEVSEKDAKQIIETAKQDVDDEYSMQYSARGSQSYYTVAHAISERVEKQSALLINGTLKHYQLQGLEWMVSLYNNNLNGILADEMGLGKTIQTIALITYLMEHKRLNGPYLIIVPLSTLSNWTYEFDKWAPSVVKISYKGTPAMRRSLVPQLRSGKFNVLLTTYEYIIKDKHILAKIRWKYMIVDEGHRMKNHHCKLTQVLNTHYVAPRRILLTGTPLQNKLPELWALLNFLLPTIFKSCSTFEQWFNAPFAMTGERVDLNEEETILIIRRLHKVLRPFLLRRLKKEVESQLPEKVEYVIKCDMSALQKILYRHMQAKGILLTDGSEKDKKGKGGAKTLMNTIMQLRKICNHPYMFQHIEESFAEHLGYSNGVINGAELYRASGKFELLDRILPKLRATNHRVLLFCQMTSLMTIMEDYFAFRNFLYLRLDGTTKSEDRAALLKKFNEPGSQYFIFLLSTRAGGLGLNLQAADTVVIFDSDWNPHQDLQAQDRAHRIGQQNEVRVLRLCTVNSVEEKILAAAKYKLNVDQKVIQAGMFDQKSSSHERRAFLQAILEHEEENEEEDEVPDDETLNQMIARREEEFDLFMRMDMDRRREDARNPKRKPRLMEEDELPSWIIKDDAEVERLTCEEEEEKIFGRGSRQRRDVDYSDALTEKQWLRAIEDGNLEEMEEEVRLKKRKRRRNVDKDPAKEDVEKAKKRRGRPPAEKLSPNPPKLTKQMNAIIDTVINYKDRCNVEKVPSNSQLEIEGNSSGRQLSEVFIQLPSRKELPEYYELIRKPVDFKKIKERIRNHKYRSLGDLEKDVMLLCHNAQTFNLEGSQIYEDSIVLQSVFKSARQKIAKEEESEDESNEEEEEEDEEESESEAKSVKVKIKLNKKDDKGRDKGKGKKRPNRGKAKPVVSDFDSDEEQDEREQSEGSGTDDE", "assay": "Luminescence-based cell-based high throughput dose response assay to identify activators of the function of SWI/SNF related, matrix associated, actin dependent regulator of chromatin, subfamily a, member 2 (SMARCA2, BRM).", "assay_type": "functional"}, "cells [6]": {"assay": "cells", "assay_type": "functional, cell-based", "remark": "listed apart in the source"}, "[7]": {"assay": "Luminescence Cell-Based Dose Response HTS to Identify Activators of Luciferase Translation or Activity in H4 […] Cells. [Related pubchem assays: 1829 (Project Summary), 1814 (Primary HTS)]", "assay_type": "functional"}, "[8]": {"assay": "Counterscreen for activators of the function of SWI/SNF related, matrix associated, actin dependent regulator of chromatin, subfamily a, member 2 (SMARCA2, BRM): Luminescence-based cell-based high throughput dose response assay to identify non-selective compounds using the VP16 reporter assay.", "assay_type": "functional"}, "[9]": {"target": "Protein disulfide-isomerase (Homo sapiens, UniProt P07237)", "sequence (P07237 whole entry)": "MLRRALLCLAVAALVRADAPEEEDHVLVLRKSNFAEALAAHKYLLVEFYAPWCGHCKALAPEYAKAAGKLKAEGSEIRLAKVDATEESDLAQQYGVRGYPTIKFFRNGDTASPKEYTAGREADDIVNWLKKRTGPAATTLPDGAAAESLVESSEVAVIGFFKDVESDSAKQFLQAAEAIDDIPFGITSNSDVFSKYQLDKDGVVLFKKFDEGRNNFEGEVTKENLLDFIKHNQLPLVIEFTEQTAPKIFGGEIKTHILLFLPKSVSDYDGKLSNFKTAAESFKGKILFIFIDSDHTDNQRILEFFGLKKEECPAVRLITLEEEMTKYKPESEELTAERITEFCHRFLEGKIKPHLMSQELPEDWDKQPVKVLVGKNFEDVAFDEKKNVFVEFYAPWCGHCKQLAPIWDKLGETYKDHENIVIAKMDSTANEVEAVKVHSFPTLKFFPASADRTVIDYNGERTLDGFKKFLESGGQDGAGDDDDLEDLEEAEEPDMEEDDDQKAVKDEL", "assay": "inhibition of PDI-mediated insulin reduction – biochemical, turbidity, dry powder samples, set 2, confirmation (AID 652146)"}, "Bcl-2-related protein A1 [10]": {"target": "T3, Bcl-2-related protein A1 (Mus musculus, UniProt Q07440)", "T3 sequence (Q07440 whole entry)": "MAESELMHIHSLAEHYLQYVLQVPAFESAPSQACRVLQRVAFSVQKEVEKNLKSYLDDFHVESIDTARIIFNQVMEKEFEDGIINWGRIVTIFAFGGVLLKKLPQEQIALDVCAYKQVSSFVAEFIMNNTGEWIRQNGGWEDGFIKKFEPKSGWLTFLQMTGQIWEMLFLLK", "assay": "small-molecule antagonists of Bfl-1/BH3 interaction – biochemical, TR-FRET, mouse Bfl-1, confirmation (AID 621);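 further: TR-FRET binding of GST-Bfl-1 to FITC-labelled Bid peptide via terbium antibody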"}, "[11]": {"target": "Glyceraldehyde-3-phosphate dehydrogenase (Homo sapiens, UniProt P04406)", "sequence (P04406 whole entry)": "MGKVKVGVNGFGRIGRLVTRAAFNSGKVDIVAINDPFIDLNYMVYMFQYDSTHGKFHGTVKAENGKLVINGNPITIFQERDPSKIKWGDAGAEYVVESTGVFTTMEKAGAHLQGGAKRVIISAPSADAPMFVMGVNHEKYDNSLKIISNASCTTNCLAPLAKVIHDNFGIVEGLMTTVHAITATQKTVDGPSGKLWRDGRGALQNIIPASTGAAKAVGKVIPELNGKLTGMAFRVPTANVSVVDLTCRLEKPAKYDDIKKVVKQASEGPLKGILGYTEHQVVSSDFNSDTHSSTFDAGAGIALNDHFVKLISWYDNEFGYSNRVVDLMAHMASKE"}, "Bcl-2-related protein A1 [12]": {"target": "T3, Bcl-2-related protein A1", "assay": "displacement of Bid BH3 peptide from Bfl-1 – biochemical, fluorescence polarization, FITC-Bid, mouse, primary screen (AID 432)"}, "Bcl-2-related protein A1 [13]": {"target": "T3, Bcl-2-related protein A1", "assay": "Bfl-1 binding inhibitors, SAR follow-up, biochemical, fluorescence polarization (AID 1070)"}, "[14]": {"assay": "viability loss in HEK293T cells – cell-based, cherry-picks, cytotoxicity control for HIV Vif inhibitor project, dose response (AID 652208)", "assay_type": "functional"}, "[15]": {"assay": "viability of PTEN-deleted HCT116 cells – cell-based, HCT116 PTEN knockout, dose response (AID 1047);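 further: HCT116 colon tumor cells with PTEN knocked out; cells exposed to compound for 60 hours before readout; potency for loss of cell viability measured by luminescence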", "assay_type": "functional"}, "[16]": {"target": "T4, Heat shock factor protein 1 (Mus musculus, UniProt P38532)", "T4 sequence (P38532 whole entry)": "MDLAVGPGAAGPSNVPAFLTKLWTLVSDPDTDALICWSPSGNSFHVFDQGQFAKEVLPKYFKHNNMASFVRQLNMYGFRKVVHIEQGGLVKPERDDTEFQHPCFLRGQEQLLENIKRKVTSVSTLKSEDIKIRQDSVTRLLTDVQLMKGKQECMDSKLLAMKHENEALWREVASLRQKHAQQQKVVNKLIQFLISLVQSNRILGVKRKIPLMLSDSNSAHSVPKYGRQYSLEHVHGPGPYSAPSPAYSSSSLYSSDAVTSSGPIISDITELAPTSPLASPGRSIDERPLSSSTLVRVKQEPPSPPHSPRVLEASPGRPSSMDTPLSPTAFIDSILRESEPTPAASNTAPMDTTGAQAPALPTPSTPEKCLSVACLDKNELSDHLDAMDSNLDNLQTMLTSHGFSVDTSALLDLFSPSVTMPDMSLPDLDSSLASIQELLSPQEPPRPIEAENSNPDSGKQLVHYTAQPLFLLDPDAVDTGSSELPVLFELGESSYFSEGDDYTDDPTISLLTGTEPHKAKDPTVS", "assay": "enhancement of HSF1-driven luciferase signal – cell-based, NIH3T3, luminescence, dose retest, confirmation (AID 435004);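 further: stress induced by proteasome inhibitor MG132 added 30 min after compound; actives raise luminescence as potentiators of the MG132 stress response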", "assay_type": "functional"}, "[17]": {"assay": "HPDE-C7 pancreatic duct cell viability loss – fluorescence, HTS (AID 430)", "assay_type": "functional, cell-based", "conditions": "Homo sapiens"}, "[18]": {"assay": "viability loss of HPDE-C7K cells – cell-based, fluorescence, HTS, primary screen (AID 431)", "assay_type": "functional", "conditions": "Homo sapiens"}, "NS3": {"target": "NS3 (Hepatitis C virus, UniProt A3EZJ3)", "sequence (A3EZJ3 whole entry)": "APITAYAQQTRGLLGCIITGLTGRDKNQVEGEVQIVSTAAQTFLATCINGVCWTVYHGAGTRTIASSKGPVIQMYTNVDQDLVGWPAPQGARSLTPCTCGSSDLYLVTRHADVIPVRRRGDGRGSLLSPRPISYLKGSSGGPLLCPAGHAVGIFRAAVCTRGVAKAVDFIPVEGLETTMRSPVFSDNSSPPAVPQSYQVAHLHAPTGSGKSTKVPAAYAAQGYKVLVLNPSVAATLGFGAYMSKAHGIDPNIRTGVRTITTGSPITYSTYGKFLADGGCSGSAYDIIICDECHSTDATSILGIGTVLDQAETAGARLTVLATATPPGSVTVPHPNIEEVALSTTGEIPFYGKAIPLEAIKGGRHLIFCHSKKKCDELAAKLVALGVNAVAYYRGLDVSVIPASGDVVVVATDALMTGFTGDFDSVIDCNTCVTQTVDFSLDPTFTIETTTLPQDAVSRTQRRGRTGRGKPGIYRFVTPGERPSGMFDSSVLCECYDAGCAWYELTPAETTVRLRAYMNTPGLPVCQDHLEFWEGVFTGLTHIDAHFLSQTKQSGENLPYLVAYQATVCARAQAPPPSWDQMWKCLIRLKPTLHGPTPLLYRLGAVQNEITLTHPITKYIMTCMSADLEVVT", "assay": "NS3h DNA-binding inhibition IC50 – biochemical, fluorescence polarization, ChemBridge library, dose response (AID 743264)"}, "[19]": {"target": "T5, Trace amine-associated receptor 1 (Homo sapiens, UniProt Q96RJ0)", "T5 sequence (Q96RJ0 whole entry)": "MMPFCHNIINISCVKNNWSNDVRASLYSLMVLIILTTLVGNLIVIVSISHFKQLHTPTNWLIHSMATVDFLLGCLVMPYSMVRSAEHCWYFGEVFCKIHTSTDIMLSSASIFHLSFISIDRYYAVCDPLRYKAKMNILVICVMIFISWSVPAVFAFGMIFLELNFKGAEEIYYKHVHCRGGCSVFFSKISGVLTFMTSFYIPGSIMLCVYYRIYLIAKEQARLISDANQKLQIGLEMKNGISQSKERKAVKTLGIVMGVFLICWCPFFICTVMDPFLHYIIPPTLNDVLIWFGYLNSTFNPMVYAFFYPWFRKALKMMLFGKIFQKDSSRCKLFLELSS", "assay": "Counterscreen for antagonists of the human trace amine associated receptor 1 (hTAAR1): Fluorescence-based cell-based high throughput dose response assay to identify TAAR1 Agonists.", "assay_type": "functional"}, "[20]": {"assay": "Counterscreen for […] of the human trace amine associated receptor 1 (TAAR1): Fluorescence-based cell-based high throughput dose response assay to identify nonselective Ga16 agonists.", "assay_type": "functional"}, "[21]": {"assay": "Counterscreen for antagonists of the human trace amine associated receptor 1 (hTAAR1): Fluorescence-based cell-based high throughput dose response assay to identify nonselective Ga16 antagonists.", "assay_type": "functional"}, "[22]": {"target": "T5, Trace amine-associated receptor 1", "assay": "Fluorescence-based cell-based high throughput dose response assay to identify antagonists of the human trace amine associated receptor 1 (TAAR1).", "assay_type": "functional"}},
  "note": "Several values for one entry are separate records, joined by “and”; a condition that tells them apart may be missing. Equal entries are not always repeated. Activity calls are given as the source filed them.",
  "data": [
    {"smiles": "O=c1c2ccccc2nc2c3ccccc3c(NCCN3CCOCC3)nn12", "values": [
      {"measurement": "EC50", "setting": "H4", "result": "> 120 µM (inconclusive)"},
      {"measurement": "IC50", "setting": "[1]", "result": "4.38 µM (active)"},
      {"measurement": "IC50", "setting": "[2]", "result": "> 35 µM (not active)"},
      {"measurement": "EC50", "setting": "[3]", "result": "> 120 µM (not active)"},
      {"measurement": "EC50", "setting": "cells [4]", "result": "> 350 µM (not active)"},
      {"measurement": "EC50", "setting": "[5]", "result": "> 10.1 µM (inactive)"},
      {"measurement": "EC50", "setting": "cells [6]", "result": "> 350 µM (not active)"},
      {"measurement": "EC50", "setting": "[7]", "result": "18 µM (active)"},
      {"measurement": "EC50", "setting": "[8]", "result": "> 91.2 µM (inactive)"}
    ]},
    {"smiles": "CCOC(=O)C1(CCOc2ccccc2)CCN(Cc2ccc(OC)c(Cl)c2)CC1", "values": [
      {"measurement": "AC50", "setting": "[9]", "result": "> 30 µM (inactive)"}
    ]},
    {"smiles": "COc1ccc(-c2cc(C(F)(F)F)nc(S(C)(=O)=O)n2)cc1OC", "values": [
      {"measurement": "IC50", "setting": "Bcl-2-related protein A1 [10]", "result": "12.7 µM (active) and 4.51 µM (active)"},
      {"measurement": "IC50", "setting": "[11]", "result": "> 100 µM (not active)"},
      {"measurement": "IC50", "setting": "Bcl-2-related protein A1 [12]", "result": "25.4 µM (active)"},
      {"measurement": "IC50", "setting": "Bcl-2-related protein A1 [13]", "result": "23.2 µM (active)"},
      {"measurement": "AC50", "setting": "[14]", "result": "13.2 µM (active)"},
      {"measurement": "EC50", "setting": "[15]", "result": "32.1 µM (active)"},
      {"measurement": "EC50", "setting": "[16]", "result": "5.47 µM (active)"},
      {"measurement": "EC50", "setting": "[17]", "result": "4.49 µM (active)"},
      {"measurement": "EC50", "setting": "[18]", "result": "3.47 µM (active)"}
    ]},
    {"smiles": "Cc1ccc(N2C(=O)NC(=O)/C(=C\\c3ccc(-c4ccc(Cl)c(C(=O)O)c4)o3)C2=O)cc1", "values": [
      {"measurement": "IC50", "setting": "NS3", "result": "133 µM (active)"}
    ]},
    {"smiles": "O=C(CCN1C(=O)C2C3C=CC(C3)C2C1=O)NCCc1ccccc1", "note": "(centres undefined)", "values": [
      {"measurement": "EC50", "setting": "[19]", "result": "> 29.9 µM (inactive)"},
      {"measurement": "EC50", "setting": "[20]", "result": "> 29.9 µM (inactive)"},
      {"measurement": "IC50", "setting": "[21]", "result": "> 29.9 µM (inactive)"},
      {"measurement": "IC50", "setting": "[22]", "result": "> 29.9 µM (inactive)"}
    ]}
  ]
}
